Measured values published in ChEMBL document CHEMBL1201862, “PubChem BioAssay data set” (2004).
The source made the active and inactive calls.

Key:
[1] = biological target: FAD-linked sulfhydryl oxidase ALR (Homo sapiens, UniProt P55789); test: inhibitors of human ALR sulfhydryl oxidase, dose response, biochemical, H2O2 detection, luminescence, cherry-pick (AID 493248)
[2] = NIH-3T3 fibroblast cytotoxicity, dose response, cytotoxicity control, cell-based, fluorescence, Alamar Blue, secondary assay (AID 2327); format: functional;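 note: NIH-3T3 mouse fibroblasts cultured with fluconazole at 8 µg/mL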
[3] = C. albicans growth with fluconazole, confirmation, fluorescence, retest (AID 2467); format: functional, cell-based
Protein skinhead-1 = biological target: T1, Protein skinhead-1 (Caenorhabditis elegans, UniProt P34707); format: functional
T1 sequence (P34707 whole entry): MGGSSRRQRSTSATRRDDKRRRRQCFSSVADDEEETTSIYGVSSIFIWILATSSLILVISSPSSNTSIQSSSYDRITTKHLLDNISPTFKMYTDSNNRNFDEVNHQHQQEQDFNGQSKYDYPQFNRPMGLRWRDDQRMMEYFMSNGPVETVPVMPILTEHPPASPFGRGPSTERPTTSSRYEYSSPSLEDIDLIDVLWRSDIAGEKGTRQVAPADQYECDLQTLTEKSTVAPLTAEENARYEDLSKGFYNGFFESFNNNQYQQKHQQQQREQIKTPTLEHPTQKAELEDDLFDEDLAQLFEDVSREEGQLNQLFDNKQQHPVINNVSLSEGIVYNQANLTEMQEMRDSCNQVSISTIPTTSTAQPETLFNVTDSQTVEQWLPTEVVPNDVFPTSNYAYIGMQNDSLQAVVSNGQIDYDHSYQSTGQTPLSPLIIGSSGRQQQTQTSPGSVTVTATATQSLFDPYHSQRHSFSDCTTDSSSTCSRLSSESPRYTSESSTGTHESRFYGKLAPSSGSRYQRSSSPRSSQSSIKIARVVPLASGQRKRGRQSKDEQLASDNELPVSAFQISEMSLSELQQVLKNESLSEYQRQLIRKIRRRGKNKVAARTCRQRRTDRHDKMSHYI

Cytochrome P450 2C9 = Cytochrome P450 2C9 (Homo sapiens, UniProt P11712)
Sequence of Cytochrome P450 2C9 (P11712 whole entry): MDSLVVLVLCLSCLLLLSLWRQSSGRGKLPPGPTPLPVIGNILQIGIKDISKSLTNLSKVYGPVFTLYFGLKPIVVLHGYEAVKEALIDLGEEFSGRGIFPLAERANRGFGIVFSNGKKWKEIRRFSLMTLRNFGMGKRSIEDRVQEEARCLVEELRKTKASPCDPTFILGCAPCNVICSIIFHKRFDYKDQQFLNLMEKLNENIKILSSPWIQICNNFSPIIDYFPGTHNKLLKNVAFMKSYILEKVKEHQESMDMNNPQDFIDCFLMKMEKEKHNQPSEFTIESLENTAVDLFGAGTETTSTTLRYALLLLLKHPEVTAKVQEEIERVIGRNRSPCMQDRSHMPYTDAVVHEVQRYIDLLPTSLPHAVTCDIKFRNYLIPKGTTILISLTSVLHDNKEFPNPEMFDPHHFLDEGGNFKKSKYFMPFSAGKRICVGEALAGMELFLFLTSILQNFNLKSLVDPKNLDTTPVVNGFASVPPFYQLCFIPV

Cytochrome P450 3A4 = Cytochrome P450 3A4 (Homo sapiens, UniProt P08684);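 note: CYP3A4 tested as one member of a cytochrome P450 panel screen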
Sequence of Cytochrome P450 3A4 (P08684 whole entry): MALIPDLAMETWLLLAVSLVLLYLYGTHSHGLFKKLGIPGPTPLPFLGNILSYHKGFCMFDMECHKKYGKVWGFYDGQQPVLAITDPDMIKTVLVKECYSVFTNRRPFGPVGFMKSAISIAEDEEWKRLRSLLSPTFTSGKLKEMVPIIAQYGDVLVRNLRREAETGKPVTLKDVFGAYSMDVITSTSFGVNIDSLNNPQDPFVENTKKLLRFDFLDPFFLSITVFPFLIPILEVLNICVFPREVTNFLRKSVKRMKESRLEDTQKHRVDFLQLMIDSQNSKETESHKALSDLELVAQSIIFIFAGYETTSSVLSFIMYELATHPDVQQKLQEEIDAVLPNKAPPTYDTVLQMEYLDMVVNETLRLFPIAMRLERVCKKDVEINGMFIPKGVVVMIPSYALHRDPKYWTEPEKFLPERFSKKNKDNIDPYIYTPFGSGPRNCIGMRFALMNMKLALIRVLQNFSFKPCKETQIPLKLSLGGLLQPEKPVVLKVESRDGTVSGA

Cytochrome P450 1A2 = biological target: T2, Cytochrome P450 1A2 (Homo sapiens, UniProt P05177);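 note: PubChem cytochrome P450 panel assay, CYP1A2 panel member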
T2 sequence (P05177 whole entry): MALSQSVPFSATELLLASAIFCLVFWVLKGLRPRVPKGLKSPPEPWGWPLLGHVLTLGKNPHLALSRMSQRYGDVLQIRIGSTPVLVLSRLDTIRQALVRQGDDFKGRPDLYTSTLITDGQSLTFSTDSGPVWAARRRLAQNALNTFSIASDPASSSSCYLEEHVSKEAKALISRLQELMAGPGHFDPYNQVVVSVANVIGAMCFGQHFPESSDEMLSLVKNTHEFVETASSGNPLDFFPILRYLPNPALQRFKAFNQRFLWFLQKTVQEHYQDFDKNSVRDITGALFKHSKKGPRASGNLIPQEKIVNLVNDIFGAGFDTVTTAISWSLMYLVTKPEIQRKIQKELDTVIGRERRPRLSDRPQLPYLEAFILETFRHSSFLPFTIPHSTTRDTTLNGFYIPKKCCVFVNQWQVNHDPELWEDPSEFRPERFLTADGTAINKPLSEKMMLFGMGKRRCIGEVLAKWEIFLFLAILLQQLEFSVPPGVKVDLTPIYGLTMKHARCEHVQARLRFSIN

[4] = microbe, parasite or virus in culture; format: functional; details: Mycobacterium tuberculosis
[5] = biological target: T3, Heat shock factor protein 1 (Mus musculus, UniProt P38532); test: inhibition of MG132-induced HSE-luciferase signal, confirmation, cell-based, NIH3T3, luminescence, dose retest (AID 2382); format: functional;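 note: NIH3T3 fibroblasts with HSF1-driven luciferase reporter stressed by proteasome inhibitor MG132; luminescence from HSF1-driven luciferase expression after 8 hours of MG132 stress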
T3 sequence (P38532 whole entry): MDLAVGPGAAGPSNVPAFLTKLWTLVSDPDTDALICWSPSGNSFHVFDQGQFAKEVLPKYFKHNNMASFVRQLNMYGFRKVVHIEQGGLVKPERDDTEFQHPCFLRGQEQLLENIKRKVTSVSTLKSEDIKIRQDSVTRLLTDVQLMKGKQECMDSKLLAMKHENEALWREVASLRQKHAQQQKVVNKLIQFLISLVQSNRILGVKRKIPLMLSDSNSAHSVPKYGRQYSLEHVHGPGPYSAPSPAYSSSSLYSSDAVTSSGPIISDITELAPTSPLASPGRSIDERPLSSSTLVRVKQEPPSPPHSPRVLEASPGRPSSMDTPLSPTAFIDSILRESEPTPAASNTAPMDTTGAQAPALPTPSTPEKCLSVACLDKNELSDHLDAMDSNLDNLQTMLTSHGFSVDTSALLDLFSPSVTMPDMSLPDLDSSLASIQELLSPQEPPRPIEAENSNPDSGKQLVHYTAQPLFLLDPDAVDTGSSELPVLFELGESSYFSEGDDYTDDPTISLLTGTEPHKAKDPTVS

[6] = biological target: T4, Ubiquitin-conjugating enzyme E2 N (Homo sapiens, UniProt P61088); format: functional;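 note: Dose-response confirmation in a TR-FRET assay detecting UBC13-driven polyubiquitin chain formation, inhibition measured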
T4 sequence (P61088 whole entry): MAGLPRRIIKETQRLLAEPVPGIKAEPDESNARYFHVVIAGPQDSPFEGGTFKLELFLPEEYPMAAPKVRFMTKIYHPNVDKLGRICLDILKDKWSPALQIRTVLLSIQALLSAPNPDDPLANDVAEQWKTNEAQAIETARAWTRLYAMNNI

[7] = HEp-2 cell cytotoxicity, dose response, cytotoxicity control for RSV inhibitor project, HTS (AID 2410); format: functional; details: human respiratory syncytial virus
[8] = inhibitors of intracellular T. cruzi replication, confirmation, NIH3T3 host cells, beta-gal luminescence (AID 2044); format: functional, cell-based;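 note: intracellular parasites grown in NIH/3T3 mouse fibroblasts as host cells; luminescent beta-galactosidase reporter signal from transgenic T. cruzi replicating inside host cells; inhibitors lower the luminescence signal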
H4 = test: Luminescence Cell-Based Dose Response HTS to Identify Activators of 5'UTR Stem-Loop Driven Prion Protein mRNA Translation in H4 Neuroglioblastoma Cells. [Related pubchem assays: 1829 (Project Summary), 1814 (Primary HTS)]; format: functional; details: Homo sapiens
Cytochrome P450 2C19 = Cytochrome P450 2C19 (Homo sapiens, UniProt P33261); test: Cytochrome panel assay with activity outcomes. Panel member name: p450-cyp2c19 Compounds with AC50 equal or less than 10 uM are considered active; format: functional; details: read-out: AC50
Sequence of Cytochrome P450 2C19 (P33261 whole entry): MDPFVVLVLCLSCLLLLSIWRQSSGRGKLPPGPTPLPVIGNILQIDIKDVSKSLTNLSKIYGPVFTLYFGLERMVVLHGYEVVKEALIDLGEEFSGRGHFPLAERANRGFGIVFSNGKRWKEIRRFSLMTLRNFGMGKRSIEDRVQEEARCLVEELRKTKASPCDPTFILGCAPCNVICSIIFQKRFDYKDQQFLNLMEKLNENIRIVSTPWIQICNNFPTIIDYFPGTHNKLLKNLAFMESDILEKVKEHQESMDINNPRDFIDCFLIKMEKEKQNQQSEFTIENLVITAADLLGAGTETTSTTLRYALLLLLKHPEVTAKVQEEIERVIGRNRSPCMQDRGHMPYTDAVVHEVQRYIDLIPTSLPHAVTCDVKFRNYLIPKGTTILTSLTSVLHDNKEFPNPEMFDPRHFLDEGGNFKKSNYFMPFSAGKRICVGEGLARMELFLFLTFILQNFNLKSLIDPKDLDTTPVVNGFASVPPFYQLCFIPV

[9] = Luminescence Cell-Based Dose Response HTS to Identify Inhibitors of 5'UTR Stem-Loop Driven Prion Protein mRNA Translation in H4 Neuroglioblastoma Cells. [Related pubchem assays: 1827 (Project Summary), 1813 (Primary HTS)]; format: functional
[10] = test system: Streptococcus sp. 'group A'; test: growth inhibition of control SK(-) GAS strain, dose response, counter-screen for streptokinase expression inhibitor project, luminescence, kanamycin, BacTiterGlo, confirmation (AID 1900); format: functional, organism-based
INS1 = test: beta cell apoptosis inhibitors, cytokine rescue, dose response, luminescence, retest (AID 449756); format: functional, cell-based; details: Rattus norvegicus;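 note: cell death triggered by IL-1 beta plus TNF-alpha plus IFN-gamma mixture; protective hits raise ATP signal compared with cytokine alone wells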
[11] = inhibitors of firefly luciferase expression or activity, dose response, H4 neuroglioma cells, luminescence (AID 1990); format: functional, cell-based
Streptococcus = test: Group A Streptococcus viability loss, dose response, counter-screen for streptokinase expression inhibitor project, luminescence, BacTiterGlo (AID 1915); format: functional, organism-based;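 note: potency for reduction of bacterial viability or growth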
[12] = inhibitors of SNCA 5'UTR-driven reporter translation, confirmation, H4 neuroglioma cells, luminescence (AID 1988); format: functional, cell-based
[13] = cytotoxicity toward NIH3T3 fibroblasts, dose response, counter-screen, cell-based, ATP luminescence, mouse fibroblasts (AID 2010); format: functional;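 note: cells exposed to compound for about 90 hours before reading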
[14] = biological target: T3, Heat shock factor protein 1; test: HSF1 potentiators in luciferase reporter cells, confirmation, cell-based, NIH3T3, luminescence, dose retest (AID 435004); format: functional;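 note: stress induced by proteasome inhibitor MG132 added 30 min after compound; luciferase reporter driven by HSF1 response element in NIH3T3 cells; actives raise luminescence as potentiators of the MG132 stress response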

Sequence of FAD-linked sulfhydryl oxidase ALR (P55789 whole entry): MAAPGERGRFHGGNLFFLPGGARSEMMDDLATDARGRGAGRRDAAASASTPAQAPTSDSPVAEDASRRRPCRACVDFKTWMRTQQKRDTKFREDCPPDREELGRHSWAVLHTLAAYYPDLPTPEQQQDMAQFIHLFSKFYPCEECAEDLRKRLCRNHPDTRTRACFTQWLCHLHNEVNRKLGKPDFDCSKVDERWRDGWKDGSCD

CC(=O)N1CCN(C(=S)c2ccc(N(C)C)cc2)CC1
AC50 [1]: 1.13 µM (active)

Cc1nc(NC(=O)c2c(-c3ccccc3)noc2C)sc1C(=O)N(C)C
EC50 [2]: > 160 µM (inactive) | EC50 [3]: > 38 µM (not active)

Cn1c(-c2ccc(F)cc2)cnc1NCc1cc2c(cc1[N+](=O)[O-])OCO2
AC50 [1]: 7.43 µM (active)

Fc1ccc(-c2nnc(-c3ccc(F)cc3)o2)cc1
IC50 (Protein skinhead-1): > 100 µM (inactive)

Nc1cc(O)nc(SCC(=O)Nc2ccc(S(=O)(=O)N3CCOCC3)cc2)n1
AC50 (Cytochrome P450 2C9): 20 µM (inconclusive) | IC50 (Protein skinhead-1): > 100 µM (inactive) | AC50 (Cytochrome P450 3A4): 28.2 µM (inconclusive)

CC1Cc2ccccc2N1C(=O)C1CCN(S(=O)(=O)Cc2ccccc2)CC1 (configuration not stated)
IC50 (Protein skinhead-1): > 100 µM (inactive)

O=C(O)c1ccc(-c2nc(-c3ccc(Cl)cc3)cs2)cc1
EC50 [2]: 112 µM (active) | EC50 [3]: 4.58 µM (active)

COc1ccc(NC(=O)CN2CCN(Cc3ccc4c(c3)OCO4)CC2)cc1OC
IC50 (Protein skinhead-1): > 100 µM (inactive)

COC(=O)c1ccc(=O)n(Cc2ccco2)c1
IC50 (Protein skinhead-1): > 100 µM (inactive)

Cc1nc(C(F)(F)F)c(C(=O)O)cc1-c1nc(-c2ccccc2)cs1
AC50 [1]: 11.4 µM (active)

O=C(O)c1ccc(CSc2nc3ccccc3o2)cc1
AC50 [1]: 51.7 µM (active) | AC50 (Cytochrome P450 2C9): 39.8 µM (inconclusive) | AC50 (Cytochrome P450 1A2): 0.0501 µM (inconclusive)

Clc1ccc(Nc2ccc(-n3ccnc3)nn2)cc1Cl
CC50 [4]: > 40 µM (active) | IC50 (Protein skinhead-1): > 100 µM (inactive)

Nc1nc(Cl)nc2ccc(Br)cc12
EC50 [5]: 5.71 µM (active) | IC50 [6]: > 20 µM (inactive)

Clc1ccc(CSc2ncn(-c3ccccc3)n2)cc1
IC50 (Protein skinhead-1): 10.3 µM (active)

CCn1cc(C(=O)OCC(=O)Nc2cccc(Cl)c2Cl)c(=O)c2ccc(C)nc21
EC50 [2]: > 150 µM (inactive) | EC50 [3]: > 38 µM (not active)

O=C(c1cc(-c2ccccc2)on1)N1CCc2ccccc2C1
IC50 (Protein skinhead-1): > 100 µM (inactive)

COc1ccc(OC)c2c(C)cc(N3CCCN(C)CC3)nc12
AC50 [1]: 22 µM (active)

COc1ccc(C2=CC(c3c(C)nn(-c4ccccc4)c3Cl)n3nnnc3N2)cc1OC (configuration not stated)
CC50 [4]: > 40 µM (active) | CC50 [7]: 24.1 µM (active)

Nc1cc(N)nc(SCc2cccc(F)c2)n1
EC50 [2]: > 150 µM (inactive) | EC50 [3]: > 38 µM (not active)

Brc1cccc(OCCSc2ncccn2)c1
IC50 (Protein skinhead-1): 63.6 µM (inactive)

Clc1ccc(-c2nc(-c3cnccn3)no2)cc1
IC50 (Protein skinhead-1): 74.1 µM (inactive)

O=[N+]([O-])C(/C=C(\Cl)[N+](=O)[O-])=C(N1CCCCC1)N1CCCCC1
EC50 [8]: 0.956 µM (active) | EC50 (H4): > 120 µM (not active)

COc1cc(-c2cc(C(=O)Nc3ccc(S(N)(=O)=O)cc3)c3ccccc3n2)cc(OC)c1OC
IC50 [6]: > 20 µM (inactive)

Fc1ccc2nc(Nc3nc4c(s3)CCCC4)sc2c1
EC50 (H4): 0.986 µM (active)

CNc1nc(N)c(C(=O)C23CC4CC(CC(C4)C2)C3)s1
AC50 [1]: 0.437 µM (active)

Nc1ccc(N2CCN(C(=O)c3ccco3)CC2)cc1
AC50 [1]: 0.719 µM (active) | AC50 (Cytochrome P450 2C9): 10 µM (inconclusive) | AC50 (Cytochrome P450 2C19): 8.91 µM (inconclusive)

COc1ccc(-c2cn(-c3ccc(C)cc3)c(=O)n2CC(=O)Nc2ccc(OC)cc2OC)cc1
IC50 (Protein skinhead-1): > 100 µM (inactive)

CCn1cc(-c2ccccc2)c(C(=O)O)c1-c1ccc(OC)cc1
AC50 [1]: 5.6 µM (active)

CCC1CCCCN1CCCNC(=O)C1CCN(c2ncnc3c2nc2n3CCCCC2)CC1 (configuration not stated)
IC50 [6]: > 20 µM (inactive)

O=C(NCC(=O)N1CCN(c2ccccc2O)CC1)c1cccs1
AC50 [1]: 4.14 µM (active)

C#CCOCCOCCOCCNc1nc(N2CCN(C(=O)[C@H](CO)n3cc([C@@H](N)C(C)C)nn3)CC2)nc(N2CCN(C(=O)[C@H](CCCCN)n3cc([C@@H](N)[C@H](C)CC)nn3)CC2)n1
IC50 [6]: > 20 µM (inactive)

Cn1c(/C=N/Nc2nc3ccccc3[nH]2)nc2ccccc21
CC50 [4]: > 40 µM (active) | EC50 [2]: 35.5 µM (active) | EC50 [3]: > 38 µM (not active)

Cc1ccccc1C(=O)OC1OC(O)=C(Cl)/C1=N\c1ccccc1 (configuration not stated)
IC50 [6]: > 20 µM (inactive)

CCOc1ccccc1C(=O)N/N=C/c1ccoc1
EC50 [2]: 138 µM (active) | EC50 [3]: 3.33 µM (active)

O=C1N=C(N/N=C/c2cccnc2)SC1Cc1ccc(SC(F)F)cc1 (configuration not stated)
EC50 [9]: 12.2 µM (active) | EC50 [10]: 3.31 µM (active) | AC50 (INS1): 2.56 µM (active) | EC50 [2]: > 150 µM (inactive) | EC50 [11]: 11.9 µM (active) | EC50 (Streptococcus): 8.36 µM (active) | EC50 [12]: 12.3 µM (active) | EC50 [13]: 3.44 µM (active) | EC50 [8]: 0.969 µM (active) | EC50 [3]: 1.87 µM (active)

Cc1ccc(/C=N/NC(=O)c2cccc(S(=O)(=O)Nc3ccccc3Cl)c2)o1
EC50 [14]: > 260 µM (inactive)
